Here are results for four compounds from US20230022117A1, “RNAi-BASED TARGETING COMPOUNDS AND USES THEREOF TO PREVENT ACQUIRED HEARING LOSS” (MUSC FOUNDATION FOR RESEARCH DEVELOPMENT, priority 2019, published 2023).

Holding throughout (assay type): in vivo, mouse
Data set [1] can be described thus: Body weight and survival with CDDP treatment. On the procedure:
There is no difference in auditory threshold shifts between CDDP 2.5-4 mg/kg with 55-60 dB shifts when measured on day 7 and on day 14 post treatment. […] This model was used to test the effect of AMPKα siRNA.
Body weight was measured before treatment, on treatment days, and 7 and 14 d post treatment. […] Data are presented as means±SD. CDDP2 mg/kg: n=2, CDDP 2.5 mg/kg: n=5, CDDP 3 mg/kg: n=2, CDDP 4 mg/kg: n=3.

The test system of data set [2] is CBA/J mice. As to the kind of experiment: Cisplatin-plus-furosemide-induced hearing loss: ABR threshold shifts. The note with it: CDDP 2.5-4 mg/kg plus furosemide 200 mg/kg IP; measured on day 7 and on day 14 post treatment.
Data set [3] concerns CBA/J mice. As to the kind of experiment: Kanamycin-plus-furosemide-induced hearing loss: ABR threshold shifts. The note with it: 8, 16, and 32 kHz; for hearing loss / auditory threshold shifts (in words): single treatment, KM 800 mg/kg SQ and/or Fu 200 mg/kg IP, 14 d after the injections; for KM-furosemide-induced auditory threshold shifts: 14 d after the injection.
Data set [4] concerns CBA/J mice. As to the kind of experiment: Noise-induced hearing loss (101-dB noise): DPOAE thresholds. As to conditions: pretreatment via intra-tympanic delivery on RWM; 12-40 kHz; 14 d after noise exposure.
Data set [5] has as its system outer hair cells (OHCs). Nature of the data set: Kanamycin-furosemide-induced OHC loss: hair cell counts. As to conditions: siRNA pretreatment via PSC; 14 d after the lesions. An excerpt:
siCaMKKβ (Thermo Fisher, #n437808) (sense: […] SEQ ID NO: 1; antisense […] SEQ ID NO: 2) or siControl (Thermo Fisher, #4390844) was locally delivered via intra-tympanic application onto the RWM as previously described (Oishi et al., 2013; Hill et al., 2016) or via PSC to the endolymph based on reports (Guo, 2018 #3975; Tao, 2018 #3973). Briefly, after anesthesia, a retroauricular incision was made to approach the temporal bone. For intra-tympanic delivery onto the RWM, the otic bulla was identified ventral to the facial nerve and a shallow hole was made in the thin part of the otic bulla with a 30-G needle and enlarged with forceps to a diameter of 2 mm in order to visualize the round window. A customized sterile micro medical tube was inserted into the hole just above the round window niche (RWN) to slowly deliver 10 μL (0.6 μg) of siCaMKKβ or siControl. For PSC delivery, the stemocleidomastoid muscle was separated to expose the PSC. A small hole was made with the tip of a 30-G needle on the PSC and left open for about 1 min (there was no obvious endolymph leakage). […]
Images from the apex through the base of the DAB-stained preparations were captured using a 20× lens on the Zeiss microscope. The lengths of the cochlear epithelia were measured and recorded in millimeters. OHCs were counted from the apex to the base along the entire length of the mouse cochlear epithelium. […]

Another data set concerns IHC synapses. Nature of the data set: Noise-induced loss of IHC synapses: CtBP2/GluA2 counts. The note with it: pretreatment via intra-tympanic delivery onto the RWM; 101-dB noise; 14 d; loss at 22 and 32 kHz. On the procedure:
Unrestrained CBA/J male mice at the age of 12 weeks (one mouse per stainless steel wire cage, approximately 9 cm^3) were exposed to broad band noise from to 2-20 kHz at 101 dB sound pressure level (SPL) for 2 h to induce permanent threshold shifts with loss of synaptic ribbons and OHCs, but not IHCs, or 106 dB to induce permanent threshold shifts with losses of ribbons, OHCs, and IHCs by 14 d after the noise exposure. […] Audio CD sound files were created and equalized with audio editing software (Audition 3; Adobe Systems, Inc.). The background sound intensity of the environment surrounding the cages was 65 dB as measured with a sound level meter (model 1200; Quest Technologies). Sound levels for noise exposure are calibrated with a sound level meter at multiple locations within the sound chamber to ensure the uniformity of the sound field before and after exposure. […]
A procedure as previously described by Hill et al., 2016 was followed. Immunofluorescence of CtBP2 on surface preparations was quantified from original confocal images, each taken with a 63×-magnification lens under identical Z-stack conditions in […] intervals and equal parameter settings for laser gains and PMT gains. […] The number of synaptic ribbons was counted using ImageJ software (National Institutes of Health, Bethesda, Md.). […]

In data set [6] the test system is CBA/J mice. Nature of the data set: Noise-induced hearing loss (101-dB broad band noise): ABR threshold shifts. The note with it: pretreatment via intra-tympanic delivery on RWM; 8, 16, and 32 kHz; 14 d after noise exposure; vs siControl. On the procedure: (§1) Unrestrained CBA/J male mice at the age of 12 weeks (one mouse per stainless steel wire cage, approximately 9 cm^3) were exposed to broad band noise from to 2-20 kHz at 101 dB sound pressure level (SPL) for 2 h to induce permanent threshold shifts with loss of synaptic ribbons and OHCs, but not IHCs, or 106 dB to induce permanent threshold shifts with losses of ribbons, OHCs, and IHCs by 14 d after the noise exposure. […] Audio CD sound files were created and equalized with audio editing software (Audition 3; Adobe Systems, Inc.). The background sound intensity of the environment surrounding the cages was 65 dB as measured with a sound level meter (model 1200; Quest Technologies). Sound levels for noise exposure are calibrated with a sound level meter at multiple locations within the sound chamber to ensure the uniformity of the sound field before and after exposure. Control mice were kept in silence (without use of the loudspeaker) within the same chamber for 2 h. […]
ABRs were measured in the left ears of anaesthetized mice before and two weeks after noise exposure. […] Body temperature was monitored and maintained near 37° C. with a heating pad. […] ABRs were measured at 8, 16, and 32 kHz. […] Thresholds were determined for each frequency by reducing the intensity in 10-dB increments and then in 5-dB steps near threshold until no organized responses were detected. […]

Another data set deals with CaMKKβ. Nature of the data set: Silencing efficiency: CaMKKβ immunolabeling in OHCs after siRNA delivery. The note with it: basal turn, 22-32 kHz. An excerpt: siCaMKKβ (Thermo Fisher, #n437808) (sense: […] SEQ ID NO: 1; antisense […] SEQ ID NO: 2) or siControl (Thermo Fisher, #4390844) was locally delivered via intra-tympanic application onto the RWM as previously described (Oishi et al., 2013; Hill et al., 2016) or via PSC to the endolymph based on reports (Guo, 2018 #3975; Tao, 2018 #3973). Briefly, after anesthesia, a retroauricular incision was made to approach the temporal bone. For intra-tympanic delivery onto the RWM, the otic bulla was identified ventral to the facial nerve and a shallow hole was made in the thin part of the otic bulla with a 30-G needle and enlarged with forceps to a diameter of 2 mm in order to visualize the round window. […]
Immunohistochemistry is well accepted as a semi-quantitative methodology when used with careful consideration of the utility and semi-quantitative nature of these assays (Taylor, 2006 #3978; Walker, 2006 #3979). The specificity of antibodies must be first detected by Western blot analysis. Antibodies showing only a single band with the correct molecular weight were used for immunolabeling on surface preparations and quantification of signaling in OHCs. […] The grayscale value was determined in only the hair cells to quantify the change in fluorescence intensity. This procedure provided quantitative measurements that are not confounded by protein expression in other cell types of the cochlea. […]

In data set [7] the test system is CBA/J mice. Nature of the data set: Kanamycin-furosemide-induced damage to OHC function: DPOAE. The note with it: siRNA pretreatment via PSC; 14 d after the injection.
Data set [8] has as its system OHC mechanotransduction channels. As to the kind of experiment: FM1-43 uptake into OHCs (mechanotransduction channel function). As to conditions: siRNA delivered through the PSC 48 h before application of FM1-43. On the procedure:
Since aminoglycoside antibiotics are known to enter outer hair cells (OHCs) mainly through mechanotransduction channels (MTCs), to address if protective effects of pretreatment with siCaMKKβ is due to blockade of kanamycin and/or furosemide entering OHCs, we assessed OHC MTCs using FM1-43FX, based on prior literature (Meyers et al., 2003; Taylor et al., 2008; Nakanishi et al., 2018). siCaMKKβ was delivered through the posterior semicircular canal (PSC) 48 h before application of FM1-43 to measure MTC function in OHCs. […] Scale bar=10 μm.
Since aminoglycoside antibiotics are known to enter outer hair cells (OHCs) mainly through mechanotransduction channels (MTCs), to address if protective effects of pretreatment with siAMPKα1 is due to blockade of kanamycin and/or furosemide entering OHCs, we assessed OHC MTCs using FM1-43FX, based on prior literature (Meyers et al., 2003; Taylor et al., 2008; Nakanishi et al., 2018). siAMPKα was delivered through the posterior semicircular canal (PSC) 48 h before application of FM1-43 to measure MTC function in OHCs. […] Scale bar=10 μm.

The test system of data set [9] is outer hair cells (OHCs). As to the kind of experiment: Noise-induced OHC loss: hair cell counts along the cochlear duct. The note with it: pretreatment via intra-tympanic delivery on RWM; 101-dB noise; 14 d after exposure. On the procedure: as §1
Images from the apex through the base of the DAB-stained preparations were captured using a 20× lens on the Zeiss microscope. The lengths of the cochlear epithelia were measured and recorded in millimeters. OHCs were counted from the apex to the base along the entire length of the mouse cochlear epithelium.

Take `[NH2][Pt]([NH2])([Cl])[Cl]` [CDDP, cisplatin]: in [1] (3 mg/kg CDDP treated group, day 8 after the treatment), the death result is listed as “One mouse of the 3 mg/kg CDDP treated group died”. Also, the “changes in body weight” value in [1] (CDDP at and above 3 mg/kg, day 7 post treatment vs beginning of the treatment) was “loss of body weight”; in data set [1] (CDDP at doses below or equal 2.5 mg/kg) it was “no significant changes”. The auditory threshold shifts in the data set on CBA/J mice [2] was 55-60 dB.
`NC[C@H]1O[C@H](O[C@H]2[C@H](O)[C@@H](O[C@H]3O[C@H](CO)[C@@H](O)[C@H](N)[C@H]3O)[C@H](N)C[C@@H]2N)[C@H](O)[C@@H](O)[C@@H]1O` [KM, kanamycin, reference compound]: the “hearing loss / auditory threshold shifts (in words)” value with CBA/J mice [3] is recorded as “does not induce hearing loss”.
On the same count and under the same terms, the entry for `NS(=O)(=O)c1cc(C(=O)O)c(NCc2ccco2)cc1Cl` [furosemide, reference compound] is “does not induce hearing loss”.
“siCaMKKβ: CaMKKβ siRNA (Thermo Fisher, #n437808); sense GAGCACAAAUAAUUGUUUUTT SEQ ID NO: 1; antisense AAAACAAUUAUUUGUGCUCTA SEQ ID NO: 2 (chemistry not given here)”: in the data set with CBA/J mice [4], the “101-dB-noise-increased DPOAE thresholds” value is recorded as “significantly attenuates”. Besides, the “KM-furosemide-induced OHC loss” value in the data set on outer hair cells (OHCs) [5] is “completely prevents”. Besides, in the data set on IHC synapses, the “noise-induced loss of synapses (CtBP2/GluA2)” value is given as “prevented”. In addition, in the data set on CBA/J mice [6], the “threshold shifts induced by exposure to 101-dB noise” value is given as “significantly decreases”. Moreover, the results for the “KM-furosemide-induced auditory threshold shifts” value with CBA/J mice [3] (siRNA pretreatment via PSC) and with CBA/J mice [3] (siRNA pretreatment via intra-tympanic delivery onto the RWM) were “completely prevented” and “significant reduction”, respectively. Besides, the “decrease of CaMKKβ immunolabeling in grayscale in OHCs compared to siControls” value is recorded as “about 90%” in the data set with CaMKKβ (72 h after PSC delivery) and “about 40%” in the data set with CaMKKβ (72 h after intra-tympanic delivery onto the RWM). Also, the “KM-furosemide-induced reduction of DPOAE (damage to OHC function)” value with CBA/J mice [7] is “completely prevented”. The “FM1-43 uptake into OHCs compared with siControl mice” value in [8] is on record as “does not change”. Further, the “noise-induced OHC loss” value in the data set on outer hair cells (OHCs) [9] is “significantly reduced”.
